Measurements from patent US5886026A, “Anti-angiogenic compositions and methods of use” (priority 1994, dated 1999).
Values belong to the molecule of their own block, whether it stands above or below them.

Assays:
Type in all cases: physicochemical
[1] = Methotrexate release from PCL discs; settings: high MePEG concentrations
Method: A known weight of a polymer (typically a 2.5 mg pellet) is added to a 15 ml test tube containing 14 ml of a buffer containing 10 mm Na2 HPO4 --NaH2 PO4, 0.145 m NaCl and 0.4 g/l bovine serum albumin. The tubes are capped and tumbled at 37° C. At specific times all the 14 ml of the liquid buffer are removed and replaced with fresh liquid buffer.
The aqueous phase is then removed and the methylene chloride phase is dried under nitrogen. The residue is then dissolved in 60% acetonitrile: 40% water and the solution is injected on to a HPLC system using the following conditions: C8 column (Beckman Instruments USA), mobile phase of 58%:5%:37% acetonitrile: methanol: water at a flow rate of […].
For MTX the collected buffer is applied directly to the HPLC column with no need for extraction in methylene chloride. MTX is analyzed at 302 nm. For Vanadium containing compounds the liquid buffer is analyzed directly using a UV/VIS spectrometer in the 200 to 300 nm range.
Methotrexate ("MTX"; Sigma Chemical Co.) is ground in a pestle and mortar to reduce the particle size to below 5 microns. It is then mixed as a dry powder with polycaprolactone (molecular wt 18000 Birmingham Polymers, Ala. USA). The mixture is heated to 65° C. for 5 minutes and the molten polymer/methotrexate mixture is stirred into a smooth paste for 5 minutes. […]

[2] = Vanadyl sulfate release from PCL
Method: Vanadyl Sulfate (Fisher Scientific) is first ground in a pestle and mortar to reduce the particle size, then dispersed into melted PCL as described above for MTX. It is then taken up into a syringe to solidify and is ready for use.
Drug release was determined essentially as described above in Example 33, except that a 65 mg pellet of a 10% w/w VOSO4 :PCL was suspended in 10 ml of water and the supernatant analyzed for released Vanadyl Sulphate using UV/Vis absorbance spectroscopy of the peak in the 200 to 300 nm range.

[3] = Encapsulation of sodium suramin in ELVAX microspheres
Method: One milliliter of 5% ELVAX (poly(ethylene-vinyl acetate) cross-linked with 5% vinyl acetate) in dichloromethane ("DCM") is mixed with a fixed weight of sub-micron ground sodium suramin. This mixture is injected into 5 ml of 5% Polyvinyl Alcohol ("PVA") in water in a 30 ml flat bottomed test tube. Tubes containing different weights of the drug are then suspended in a multi-sample water bath at 40° for 90 minutes with automated stirring. The mixtures are removed, and microsphere samples taken for size analysis. Tubes are centrifuged at 1000 g for 5 min. The PVA supernatant is removed and saved for analysis (nonencapsulated drug). The microspheres are then washed (vortexed) in 5 ml of water and recentrifuged. The 5 ml wash is saved for analysis (surface bound drug). Microspheres are then wetted in 50 μl of methanol, and vortexed in 1 ml of DCM to dissolve the ELVAX. The microspheres are then warmed to 40° C., and 5 ml of 50° C. water is slowly added with stirring. This procedure results in the immediate evaporation of DCM, thereby causing the release of sodium suramin into the 5 ml of water.
All samples were assayed for drug content by quantification of fluorescence. Briefly, sodium suramin absorbs uv/vis with a lambda max of 312 nm. This absorption is linear in the 0 to 100 μg/ml range in both water and 5% PVA. […] This fluorescence is quantifiable in the 0 to 25 μg/ml range.

Compound: CN(Cc1cnc2nc(N)nc(N)c2n1)c1ccc(C(=O)N[C@@H](CCC(=O)O)C(=O)O)cc1 [MTX]
MTX release [1]: substantial amounts of MTX can be released from the polymer

VOSO4 released ([2]; 6 hours, 65 mg pellet 10% w/w in water): 1 mg | VOSO4 released ([2]; 2 days, 65 mg pellet 10% w/w in water): 3 mg | VOSO4 released ([2]; day 6, 65 mg pellet 10% w/w in water): 5 mg
Compound: O=S(=O)([O-])[O-].[O]=[V+2] [VOSO4, vanadyl sulfate]

drug encapsulated in 50 mg of ELVAX ([3]; 50 mg ELVAX): 50 µg | % encapsulation ([3]; ELVAX microspheres): < 1%
Compound: Cc1ccc(C(=O)Nc2ccc(S(=O)(=O)O)c3cc(S(=O)(=O)O)cc(S(=O)(=O)O)c23)cc1NC(=O)c1cccc(NC(=O)Nc2cccc(C(=O)Nc3cc(C(=O)Nc4ccc(S(=O)(=O)O)c5cc(S(=O)(=O)O)cc(S(=O)(=O)O)c45)ccc3C)c2)c1 [suramin]
